Source: patent US20240308992A1 (Biopolar Youtang(Guangdong) Pharmaceutical Co., Ltd., priority 2021, published 2024)

Target: T1, Drak2 (Homo sapiens, UniProt O94768)
T1 sequence (O94768 1-372): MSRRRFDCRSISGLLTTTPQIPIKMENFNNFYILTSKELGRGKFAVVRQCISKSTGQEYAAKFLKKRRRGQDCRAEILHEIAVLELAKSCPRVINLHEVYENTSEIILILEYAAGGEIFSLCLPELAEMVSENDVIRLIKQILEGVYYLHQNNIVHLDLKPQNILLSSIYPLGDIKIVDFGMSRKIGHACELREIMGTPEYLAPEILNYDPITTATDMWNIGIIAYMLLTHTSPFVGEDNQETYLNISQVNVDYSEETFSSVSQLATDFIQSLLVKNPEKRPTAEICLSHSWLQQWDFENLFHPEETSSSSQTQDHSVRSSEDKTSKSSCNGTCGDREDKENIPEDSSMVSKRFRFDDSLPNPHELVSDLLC
Test: Drak2 activity test, ADP-Glo kinase assay (Promega)
Assay type: biochemical
Settings: inhibition of Drak2 kinase activity, 2 h room temperature, activity range classes, read-out: IC50_Drak2

IC50 [µM]	SMILES
0.101 to 1	COc1ccc(-c2cncc(-c3cc(NC(=O)C4CCC4)cs3)n2)cc1OC [Example A7, N-(5-(6-(3,4-dimethoxyphenyl)pyrazin-2-yl)thiophen-3-yl)cyclobutanecarboxamide]
0.101 to 1	COc1ccc(-c2cncc(-c3cc(NC(=O)C4CCCC4)cs3)n2)cc1OC [Example A8, N-(5-(6-(3,4-dimethoxyphenyl)pyrazin-2-yl)thiophen-3-yl)cyclopentanecarboxamide]
0.101 to 1	COc1ccc(-c2cncc(-c3cc(NC(=O)C4CCCCC4)cs3)n2)cc1OC [Example A9, N-(5-(6-(3,4-dimethoxyphenyl)pyrazin-2-yl)thiophen-3-yl)cyclohexanecarboxamide]
1 to 10	COc1ccc(-c2cncc(-c3cc(NC(=O)c4ccccc4)cs3)n2)cc1OC [Example A10, N-(5-(6-(3,4-dimethoxyphenyl)pyrazin-2-yl)thiophen-3-yl)benzamide]
> 10	CCCCC(=O)Nc1csc(-c2nccc(-c3ccc(OC)c(OC)c3)n2)c1 [Example A11, N-(5-(4-(3,4-dimethoxyphenyl)pyrimidin-2-yl)thiophen-3-yl)pentanamide]
1 to 10	CCCCC(=O)Nc1csc(-c2cncc(-c3cccc(OC)c3OC)n2)c1 [Example A12, N-(5-(6-(2,3-dimethoxyphenyl)pyrazin-2-yl)thiophen-3-yl)pentanamide]
0.101 to 1	CCCCC(=O)Nc1csc(-c2cncc(-c3cc(OC)ccc3OC)n2)c1 [Example A13, N-(5-(6-(2,5-dimethoxyphenyl)pyrazin-2-yl)thiophen-3-yl)pentanamide]
1 to 10	COc1ccc(OC)c(-c2cncc(-c3cc(NC(=O)C4CCC4)cs3)n2)c1 [Example A14, N-(5-(6-(2,5-dimethoxyphenyl)pyrazin-2-yl)thiophen-3-yl)cyclobutanecarboxamide]
0.101 to 1	COc1cc(-c2cncc(-c3cc(NC(=O)C4CCC4)cs3)n2)ccc1Cl [Example A15, N-(5-(6-(4-chloro-3-methoxyphenyl)pyrazin-2-yl)thiophen-3-yl)cyclobutanecarboxamide]
1 to 10	CCCCC(=O)Nc1csc(-c2cncc(-c3ccc(Cl)c(OC)c3)n2)c1 [Example A16, N-(5-(6-(4-chloro-3-methoxyphenyl)pyrazin-2-yl)thiophen-3-yl)pentanamide]
0.101 to 1	COc1ccc(-c2cncc(-c3cc(NC(=O)C4CCC4)cs3)n2)cc1Cl [Example A17, N-(5-(6-(3-chloro-4-methoxyphenyl)pyrazin-2-yl)thiophen-3-yl)cyclobutanecarboxamide]
0.101 to 1	CCCCC(=O)Nc1csc(-c2cncc(-c3cc(OC)cc(OC)c3)n2)c1 [Example A18, N-(5-(6-(3,5-dimethoxyphenyl)pyrazin-2-yl)thiophen-3-yl)pentanamide]
0.101 to 1	CCCCC(=O)Nc1csc(-c2cncc(-c3ccc(OC)c(Cl)c3)n2)c1 [Example A19, N-(5-(6-(3-chloro-4-methoxyphenyl)pyrazin-2-yl)thiophen-3-yl)pentanamide]
0.101 to 1	CCCCC(=O)Nc1csc(-c2cncc(-c3ccc(C#N)c(OC)c3)n2)c1 [Example A20, N-(5-(6-(4-cyano-3-methoxyphenyl)pyrazin-2-yl)thiophen-3-yl)pentanamide]
0.101 to 1	CCCCC(=O)Nc1csc(-c2cncc(-c3ccc(OC)c(C#N)c3)n2)c1 [Example A21, N-(5-(6-(3-cyano-4-methoxyphenyl)pyrazin-2-yl)thiophen-3-yl)pentanamide]
0.101 to 1	COc1ccc(-c2cncc(-c3cc(NC(=O)C4CCC4)cs3)n2)cc1C#N [Example A22, N-(5-(6-(3-cyano-4-methoxyphenyl)pyrazin-2-yl)thiophen-3-yl)cyclobutanecarboxamide]

IC50 [µM]	SMILES
0.101 to 1	CCCCC(=O)Nc1csc(-c2cncc(-c3ccc4c(c3)OCO4)n2)c1 [Example A23, N-(5-(6-(benzo[d][1,3]dioxol-5-yl)pyrazin-2-yl)thiophen-3-yl)pentanamide]
1 to 10	O=C(Nc1csc(-c2cncc(-c3ccc4c(c3)OCO4)n2)c1)C1CCC1 [Example A24, N-(5-(6-(benzo[d][1,3]dioxol-5-yl)pyrazin-2-yl)thiophen-3-yl)cyclobutanecarboxamide]
> 10	COc1cc(C(N)=O)c(-c2cncc(-c3cc(NC(=O)C4CCC4)cs3)n2)cc1OC [Example A25, 2-(6-(4-(cyclobutanecarboxamido)thiophen-2-yl)pyrazin-2-yl)-4,5-dimethoxybenzamide]
1 to 10	CCCCC(=O)Nc1csc(-c2cncc(-c3cc(OC)c(OC)cc3C(N)=O)n2)c1 [Example A26, 4,5-dimethoxy-2-(6-(4-pentanamidothiophen-2-yl)pyrazin-2-yl)benzamide]
1 to 10	CCCCC(=O)Nc1csc(-c2cncc(-c3ccc(F)c(F)c3)n2)c1 [Example A27, N-(5-(6-(3,4-difluorophenyl)pyrazin-2-yl)thiophen-3-yl)pentanamide]
1 to 10	O=C(Nc1csc(-c2cncc(-c3ccc(F)c(F)c3)n2)c1)C1CCC1 [Example A28, N-(5-(6-(3,4-difluorophenyl)pyrazin-2-yl)thiophen-3-yl)cyclobutanecarboxamide]
0.101 to 1	CCCCCC(=O)Nc1csc(-c2cncc(-c3ccc(OC)c(OC)c3)n2)c1 [Example A29, N-(5-(6-(3,4-dimethoxyphenyl)pyrazin-2-yl)thiophen-3-yl)hexanamide]
> 10	CCCCCCC(=O)Nc1csc(-c2cncc(-c3ccc(OC)c(OC)c3)n2)c1 [Example A30, N-(5-(6-(3,4-dimethoxyphenyl)pyrazin-2-yl)thiophen-3-yl)heptanamide]
0.011 to 0.1	COc1ccc(-c2cncc(-c3cc(NC(=O)CC4CC4)cs3)n2)cc1OC [Example A31, 2-cyclopropyl-N-(5-(6-(3,4-dimethoxyphenyl)pyrazin-2-yl)thiophen-3-yl)acetamide]
0.011 to 0.1	COc1ccc(-c2cncc(-c3cc(NC(=O)CC4CCC4)cs3)n2)cc1OC [Example A32, 2-cyclobutyl-N-(5-(6-(3,4-dimethoxyphenyl)pyrazin-2-yl)thiophen-3-yl)acetamide]
0.101 to 1	COc1ccc(-c2cncc(-c3cc(NC(=O)CC4CCCC4)cs3)n2)cc1OC [Example A33, 2-cyclopentyl-N-(5-(6-(3,4-dimethoxyphenyl)pyrazin-2-yl)thiophen-3-yl)acetamide]
0.011 to 0.1	CCCCC(=O)Nc1csc(-c2cncc(-c3ccc(O)c(F)c3)n2)c1 [Example A34, N-(5-(6-(3-fluoro-4-hydroxyphenyl)pyrazin-2-yl)thiophen-3-yl)pentanamide]
0.011 to 0.1	CCCCC(=O)Nc1csc(-c2cncc(-c3ccc(C4(O)COC4)c(OC)c3)n2)c1 [Example A35, N-(5-(6-(4-(3-hydroxyoxetan-3-yl)-3-methoxyphenyl)pyrazin-2-yl)thiophen-3-yl)pentanamide]
0.101 to 1	CCCCC(=O)Nc1csc(-c2cncc(-c3ccc(-c4cc(O)no4)c(OC)c3)n2)c1 [Example A36, N-(5-(6-(4-(3-hydroxyisoxazol-5-yl)-3-methoxyphenyl)pyrazin-2-yl)thiophen-3-yl)pentanamide]
0.101 to 1	CCCCC(=O)Nc1csc(-c2cncc(-c3ccc(C4=NOC(=O)C4)c(OC)c3)n2)c1 [Example A37, N-(5-(6-(3-methoxy-4-(5-oxo-4,5-dihydroisoxazol-3-yl)phenyl)pyrazin-2-yl)thiophen-3-yl)pentanamide]
